Experimental data reported in ChEMBL document CHEMBL1201862, “PubChem BioAssay data set” (2004).
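Values below derive from 48-hour exposures of cells grown in 96-well plates, with endpoints linearly interpolated between the two concentrations bracketing the appropriate inhibition level. GI50 marks 50% less growth.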 Activity calls are given as the source filed them. No stated cut-off is given here; in the data, active = GI50 up to about 1.1 µM and inactive = higher.

Experiments:
Assay in all cases: inhibition of tumour cell growth, NCI panel, 48 h
Malme-3M = test system: Malme-3M
UO-31 = test system: UO-31
NCI-H23 = test system: NCI-H23
SNB-19 = test system: SNB-19
K562 = test system: K562
PC-3 = test system: PC-3
TK-10 = test system: TK-10
SR = test system: SR
EKVX = test system: EKVX
T47D = test system: T47D
CAKI-1 = test system: CAKI-1
HCT-116 = test system: HCT-116
MDA-MB-231 = test system: MDA-MB-231
NCI-H460 = test system: NCI-H460
786-0 = test system: 786-0
SW-620 = test system: SW-620
OVCAR-8 = test system: OVCAR-8
HT-29 = test system: HT-29
HCT-15 = test system: HCT-15
SK-MEL-2 = test system: SK-MEL-2

SMILES	GI50 (Malme-3M)	GI50 (UO-31)	GI50 (NCI-H23)	GI50 (SNB-19)	GI50 (K562)	GI50 (PC-3)	GI50 (TK-10)	GI50 (SR)	GI50 (EKVX)	GI50 (T47D)	GI50 (CAKI-1)	GI50 (HCT-116)	GI50 (MDA-MB-231)	GI50 (NCI-H460)	GI50 (786-0)	GI50 (SW-620)	GI50 (OVCAR-8)	GI50 (HT-29)	GI50 (HCT-15)	GI50 (SK-MEL-2)
CC1(C)C=C(/C=N/Nc2ccc(Br)cc2)C(C#N)=C(O)C1(C#N)C#N	89.7 µM (inactive)	22.8 µM (inactive)	46 µM (inactive)	> 100 µM (inactive)	17.7 µM (inactive)	21.2 µM (inactive)	83.6 µM (inactive)	26.4 µM (inactive)	54.3 µM (inactive)	40.9 µM (inactive)	36.1 µM (inactive)	32.2 µM (inactive)	39.5 µM (inactive)	33.1 µM (inactive)	47.2 µM (inactive)	36.5 µM (inactive)	52.5 µM (inactive)	40.8 µM (inactive)	–	–
N#CCCN(CCC#N)c1ccc(/C=C2\N=C(c3ccccc3)N(c3ccccn3)C2=O)cc1	> 100 µM (inactive)	> 100 µM (inactive)	–	> 100 µM (inactive)	> 100 µM (inactive)	> 100 µM (inactive)	> 100 µM (inactive)	–	> 100 µM (inactive)	> 100 µM (inactive)	> 100 µM (inactive)	> 100 µM (inactive)	> 100 µM (inactive)	> 100 µM (inactive)	> 100 µM (inactive)	> 100 µM (inactive)	> 100 µM (inactive)	> 100 µM (inactive)	> 100 µM	> 100 µM (inactive)
N#C/C(C(=O)Nc1ccccc1)=C(/N)N1CCOCC1	–	> 100 µM (inactive)	> 100 µM (inactive)	> 100 µM (inactive)	> 100 µM (inactive)	> 100 µM (inactive)	–	> 100 µM (inactive)	> 100 µM (inactive)	> 100 µM (inactive)	> 100 µM (inactive)	> 100 µM (inactive)	–	> 100 µM (inactive)	> 100 µM (inactive)	> 100 µM (inactive)	> 100 µM (inactive)	–	> 100 µM	> 100 µM (inactive)
CC1(C)OC2CN(C(=O)OCc3ccccc3)C(CO)C2O1 (configuration not stated)	> 100 µM (inactive)	> 100 µM (inactive)	> 100 µM (inactive)	> 100 µM (inactive)	> 100 µM (inactive)	> 100 µM (inactive)	> 100 µM (inactive)	–	> 100 µM (inactive)	> 100 µM (inactive)	> 100 µM (inactive)	> 100 µM (inactive)	> 100 µM (inactive)	> 100 µM (inactive)	> 100 µM (inactive)	> 100 µM (inactive)	> 100 µM (inactive)	> 100 µM (inactive)	> 100 µM	> 100 µM (inactive)
CCOC(=O)c1c(N2CCOCC2)[nH]c(=O)c(C(c2ccc(OC)cc2)c2c(O)c(C(=O)OCC)c(N3CCOCC3)[nH]c2=O)c1O	> 100 µM (inactive)	> 100 µM (inactive)	> 100 µM (inactive)	> 100 µM (inactive)	> 100 µM (inactive)	> 100 µM (inactive)	> 100 µM (inactive)	> 100 µM (inactive)	> 100 µM (inactive)	> 100 µM (inactive)	> 100 µM (inactive)	> 100 µM (inactive)	> 100 µM (inactive)	> 100 µM (inactive)	> 100 µM (inactive)	> 100 µM (inactive)	> 100 µM (inactive)	> 100 µM (inactive)	> 100 µM	–
O=S(=O)(O)c1ccc(/N=N/c2ccc(/N=N/c3c(O)ccc4ccccc34)c(S(=O)(=O)O)c2)cc1	> 100 µM (inactive)	> 100 µM (inactive)	> 100 µM (inactive)	> 100 µM (inactive)	> 100 µM (inactive)	> 100 µM (inactive)	> 100 µM (inactive)	> 100 µM (inactive)	> 100 µM (inactive)	–	> 100 µM (inactive)	> 100 µM (inactive)	> 100 µM (inactive)	> 100 µM (inactive)	> 100 µM (inactive)	> 100 µM (inactive)	> 100 µM (inactive)	> 100 µM (inactive)	> 100 µM	> 100 µM (inactive)
Oc1[nH]c(Nc2ccc(Cl)c(C(F)(F)F)c2)nc2ncnc1-2	30.3 µM (inactive)	> 100 µM (inactive)	73.8 µM (inactive)	45.1 µM (inactive)	39.6 µM (inactive)	33 µM (inactive)	52.6 µM (inactive)	–	53.1 µM (inactive)	24.5 µM (inactive)	> 100 µM (inactive)	34.7 µM (inactive)	42.2 µM (inactive)	51.8 µM (inactive)	25.7 µM (inactive)	70 µM (inactive)	31.8 µM (inactive)	33 µM (inactive)	> 100 µM	25.5 µM (inactive)
CNc1c2c(c3nc4ccccc4c4c3c1N=C4)NCCC2=O [PLAKINIDINE A]	4.65 µM (inactive)	3.56 µM (inactive)	7.13 µM (inactive)	> 10 µM (inactive)	2.43 µM (inactive)	3.46 µM (inactive)	8.51 µM (inactive)	–	> 10 µM (inactive)	3.78 µM (inactive)	4.69 µM (inactive)	1.77 µM (inactive)	3.86 µM (inactive)	3.15 µM (inactive)	2.41 µM (inactive)	2.44 µM (inactive)	2.38 µM (inactive)	2.23 µM (inactive)	6.4 µM	> 10 µM (inactive)
